The values below are quoted from earlier work in patent publication US20140147381A1, “89ZR COMPOUNDS, TO INCLUDE SOMATOSTATIN, APPARATUS AND PRODUCTS COMPRISING SUCH COMPOUNDS, METHODS OF MAKING SAME, AND METHODS OF USING SAME FOR RADIO IMAGING AND/OR TREATMENT” (priority 2012, published 2014).

The conditions of data set [1]: small-animal PET.
The subject of data set [2] is carcinoid tumors. The note with it: carcinoid patients.
For data set [3] the following is noted: in vitro.

With `[Cl][89Zr]([Cl])([Cl])[Cl]` [[^89Zr]-chloride], the site of accumulation entry in data set [1] (free 89Zr(IV) ions) is “accumulate in the liver”.
Interferon: in data set [2], the biochemical response rate is 40% and the tumor response rate is 12%.
On to [^89Zr]-DFO, for which, in data set [3], the “stable with respect to ligand dissociation in human serum” value is reported as greater than 7 days. Further, the “excreted rapidly via the kidneys within” value in data set [1] is less than 20 min.
